Activity calls are given as the source filed them. No cut-off for these calls is given here.
Columns and labels:
MGC-803 [1] = experiment: Induction of apoptosis in human MGC-803 cells assessed as viable cells at 7.5 uM measured after 24 hrs by AnnexinV/FITC staining based flow cytometry method (reference value: 94.8%); format: functional; details: read-out: Activity
HGC-27 [2] = experiment: Induction of apoptosis in human HGC-27 cells assessed as reduction of mitochondrial membrane potential at 9 uM measured after 24 hrs by JC-1 staining based Flowcytometry assay (reference value: 2.4%); format: functional; design: scale not given: the % may be the effect or the level left
HGC-27 [3] = experiment: Induction of apoptosis in human HGC-27 cells assessed as ROS levels at 3 uM measured after 24 hrs by DCFH-DA staining based flow cytometry assay (reference value: 6.8%); format: functional
MGC-803 [4] = experiment: Induction of apoptosis in human MGC-803 cells assessed as necrotic cells at 5 uM measured after 48 hrs by AnnexinV/FITC staining based flow cytometry method (reference value: 0.2%); format: functional
HGC-27 [5] = experiment: Induction of apoptosis in human HGC-27 cells assessed as early apoptotic cells at 9 uM measured after 48 hrs by AnnexinV/FITC staining based flow cytometry method (reference value: 5.8%); format: functional
MGC-803 [6] = experiment: Inhibition of cell migration in human MGC-803 cells at 5 uM measured after 48 hrs by wound healing assay based inverted microscopic analysis; format: functional
MGC-803 [7] = experiment: Induction of apoptosis in human MGC-803 cells assessed as late apoptotic cells at 7.5 uM measured after 48 hrs by AnnexinV/FITC staining based flow cytometry method (reference value: 0.9%); format: functional
MGC-803 [8] = experiment: Antitumour activity against human MGC-803 cells xenografted in NOD-SCID mouse assessed as reduction on tumour growth at 50 mg/kg/day, IG measured after 21 days relative to control; format: functional; details: MGC-803, po, 504 h, time 21 day, read-out: TGI
HGC-27 [9] = experiment: Induction of apoptosis in human HGC-27 cells assessed as early apoptotic cells at 9 uM measured after 24 hrs by AnnexinV/FITC staining based flow cytometry method (reference value: 0.7%); format: functional
HGC-27 [10] = experiment: Induction of apoptosis in human HGC-27 cells assessed as late apoptotic cells at 9 uM measured after 48 hrs by AnnexinV/FITC staining based flow cytometry method (reference value: 1%); format: functional
HGC-27 [11] = experiment: Induction of apoptosis in human HGC-27 cells assessed as ROS levels at 6 uM measured after 24 hrs by DCFH-DA staining based flow cytometry assay (reference value: 6.8%); format: functional
HGC-27 [12] = experiment: Induction of apoptosis in human HGC-27 cells assessed as upregulation of Bax at 3 to 9 uM measured after 24 hrs by Western blot assay; format: functional, cell-based; details: dose 3-9 µM
MGC-803 [13] = experiment: Cell cycle arrest in human MGC-803 cells assessed as accumulation of cells at S phase at 2.5 uM measured after 24 hrs by Flowcytometry assay (reference value: 36.51%); format: functional
HGC-27 [14] = experiment: Induction of apoptosis in human HGC-27 cells assessed as upregulation of Bak at 3 to 9 uM measured after 24 hrs by Western blot assay; format: functional, cell-based; details: dose 3-9 µM
[15] = Toxicity in NOD-SCID mouse xenografted with human MGC-803 cells assessed as change in body weight at 50 to 100 mg/kg/day, IG measured after 21 days; format: organism-based; details: in vivo, po, 504 h, dose 50-100 mg/kg/day, time 21 day
HGC-27 [16] = experiment: Induction of apoptosis in human HGC-27 cells assessed as necrotic cells at 3 uM measured after 24 hrs by AnnexinV/FITC staining based flow cytometry method (reference value: 1.2%); format: functional
HGC-27 [17] = experiment: Induction of apoptosis in human HGC-27 cells assessed as late apoptotic cells at 6 uM measured after 48 hrs by AnnexinV/FITC staining based flow cytometry method (reference value: 1%); format: functional
MGC-803 [18] = experiment: Cell cycle arrest in human MGC-803 cells assessed as accumulation of cells at S phase at 7.5 uM measured after 24 hrs by Flowcytometry assay (reference value: 36.51%); format: functional
MGC-803 [19] = experiment: Cell cycle arrest in human MGC-803 cells assessed as accumulation of cells at G0/G1 phase at 2.5 uM measured after 24 hrs by Flowcytometry assay (reference value: 46.01%); format: functional
MGC-803 [20] = experiment: Induction of apoptosis in human MGC-803 cells assessed as ROS levels at 7.5 uM measured after 24 hrs by DCFH-DA staining based flow cytometry assay (reference value: 3.3%); format: functional
MGC-803 [21] = experiment: Induction of apoptosis in human MGC-803 cells assessed as reduction of mitochondrial membrane potential at 5 uM measured after 24 hrs by JC-1 staining based Flowcytometry assay (reference value: 3.8%); format: functional; design: scale not given: the % may be the effect or the level left
MGC-803 [22] = experiment: Induction of apoptosis in human MGC-803 cells assessed as down-regulation of Keap1 expression at 2.5 to 7.5 uM measured after 24 hrs by Western blot assay; format: functional, cell-based; details: dose 2.5-7.5 µM
HGC-27 [23] = experiment: Induction of apoptosis in human HGC-27 cells assessed as viable cells at 9 uM measured after 48 hrs by AnnexinV/FITC staining based flow cytometry method (reference value: 93.18%); format: functional; details: read-out: Activity
MGC-803 [24] = experiment: Induction of apoptosis in human MGC-803 cells assessed as reduction of mitochondrial membrane potential at 7.5 uM measured after 24 hrs by JC-1 staining based Flowcytometry assay (reference value: 3.8%); format: functional; design: scale not given: the % may be the effect or the level left
HGC-27 [25] = experiment: Induction of apoptosis in human HGC-27 cells assessed as necrotic cells at 9 uM measured after 24 hrs by AnnexinV/FITC staining based flow cytometry method (reference value: 1.2%); format: functional
MGC-803 [26] = experiment: Induction of apoptosis in human MGC-803 cells assessed as early apoptotic cells at 5 uM measured after 48 hrs by AnnexinV/FITC staining based flow cytometry method (reference value: 1.5%); format: functional
MGC-803 [27] = experiment: Cell cycle arrest in human MGC-803 cells assessed as accumulation of cells at G0/G1 phase at 7.5 uM measured after 24 hrs by Flowcytometry assay (reference value: 46.01%); format: functional
MGC-803 [28] = experiment: Cell cycle arrest in human MGC-803 cells assessed as accumulation of cells at G0/G1 phase at 5 uM measured after 24 hrs by Flowcytometry assay (reference value: 46.01%); format: functional
MGC-803 [29] = experiment: Induction of apoptosis in human MGC-803 cells assessed as down-regulation of Nrf2 expression in nucleus at 2.5 to 7.5 uM measured after 24 hrs by Western blot assay; format: functional, cell-based; details: dose 2.5-7.5 µM
MGC-803 [30] = experiment: Induction of apoptosis in human MGC-803 cells assessed as viable cells at 5 uM measured after 24 hrs by AnnexinV/FITC staining based flow cytometry method (reference value: 94.8%); format: functional; details: read-out: Activity
MGC-803 [31] = experiment: Induction of apoptosis in human MGC-803 cells assessed as necrotic cells at 5 uM measured after 24 hrs by AnnexinV/FITC staining based flow cytometry method (reference value: 1.9%); format: functional
MGC-803 [32] = experiment: Antiproliferative activity against human MGC-803 cells assessed as cell survival at 7.5 uM pre-incubated with Z-VAD-FMK followed by compound addition and measured after 24 hrs by MTT assay; format: functional, cell-based
MGC-803 [33] = experiment: Induction of apoptosis in human MGC-803 cells assessed as early apoptotic cells at 2.5 uM measured after 24 hrs by AnnexinV/FITC staining based flow cytometry method (reference value: 1.3%); format: functional
MGC-803 [34] = experiment: Induction of apoptosis in human MGC-803 cells assessed as ROS levels at 2.5 uM measured after 24 hrs by DCFH-DA staining based flow cytometry assay (reference value: 3.3%); format: functional

## CCCCCc1ccc(NC(=O)C2CCN(C/C=C/c3ccccc3)CC2)cc1
MGC-803 [1]
  viability at 7.5 µM: 9.1%
HGC-27 [2]
  Activity: 58%
HGC-27 [3]
  Activity: 11.4%
MGC-803 [4]
  Activity: 0.8%
HGC-27 [5]
  Activity: 0.2%
MGC-803 [6]
  inhibition at 5 µM: 40%
MGC-803 [7]
  Activity: 95.6%
MGC-803 [8]
  inhibition in vivo at 50 mg/kg/day: 32.3%
HGC-27 [9]
  Activity: 2.3%
HGC-27 [10]
  Activity: 99.5%
HGC-27 [11]
  Activity: 14.5%
HGC-27 [12]
  Activity: Dose-Dependent Effect
MGC-803 [13]
  Activity: 33.01%
HGC-27 [14]
  Activity: Dose-Dependent Effect
[15]
  Activity: Non-Toxic
HGC-27 [16]
  Activity: 0.4%
HGC-27 [17]
  Activity: 21.2%
MGC-803 [18]
  Activity: 33.6%
MGC-803 [19]
  Activity: 48.87%
MGC-803 [20]
  Activity: 22.2%
MGC-803 [21]
  Activity: 17.4%
MGC-803 [22]
  Activity: Active
HGC-27 [23]
  viability at 9 µM: 0.3%
MGC-803 [24]
  Activity: 70%
HGC-27 [25]
  Activity: 2.7%
MGC-803 [26]
  Activity: 9.8%
MGC-803 [27]
  Activity: 37.06%
MGC-803 [28]
  Activity: 44.87%
MGC-803 [29]
  Activity: Active
MGC-803 [30]
  viability at 5 µM: 80.1%
MGC-803 [31]
  Activity: 8.2%
MGC-803 [32]
  Activity: Active
MGC-803 [33]
  Activity: 2.1%
MGC-803 [34]
  Activity: 4%

Reference: ChEMBL document CHEMBL5038615, “Discovery of a cinnamyl piperidine derivative as new neddylation inhibitor for gastric cancer treatment” (Eur J Med Chem, 2021)
